Experimental findings from patent publication US10172868B2, “Substituted quinazolines for inhibiting kinase activity” (NeuPharma, Inc., priority 2013, dated 2019) are described below.

A value given as a limit tells only on which side of the number the result lay.

One assay concerns the target EGFR (ErbB1) T790M (Homo sapiens (Human), UniProt P00533, T790M). Nature of the assay: Z'-LYTE kinase inhibition assay, EGFR T790M. Particulars: read-out: % inhibition against EGFR T790M (Compound at 1 μM). Format: biochemical. The method, then:
Inhibitory activities of compounds against BTK, EGFR and EGFR mutants (EGFR L858R, EGFR T790M, EGFR L858R/T790M), FGFR1, FGFR2, JAK2, JAK3 and KDR were measured by Invitrogen using Z'-LYTE® Method as briefly described in the following. Test Compounds are screened in 1% DMSO (final) in the well. For 10 point titrations, 3-fold serial dilutions are conducted from the starting concentration. All ATP Solutions are diluted to a 4× working concentration in Kinase Buffer (50 mM HEPES pH 7.5, 0.01% BRIJ-35, 10 mM MgCl2, 1 mM EGTA). Peptide/Kinase Mixtures are diluted to a 2× working concentration in the appropriate Kinase Buffers as described below. (iii) Peptide/Kinase Mixtures for Measurement of EGFR (ErbB1) T790M: […] After the 1 hour Kinase Reaction incubation, 5 μL of a 1:64 dilution of Development Reagent B is added. Reaction starts by 30-second shaking of mixture consisting of 2.5 μL 4× test compound, […] 2× kinase reaction mixture and 2.5 μL 4×ATP Solution on Bar-coded Corning, low volume NBS, black 384-well plate (Corning Cat. #3676). Then the mixture is incubated for 60-minute at room temperature for the kinase reaction, followed by addition of 5 μL of a 1:1024 dilution of development reagent A and 30-second plate shake. The mixture is then incubated for another 60-minute at room temperature for development reaction. Finally fluorescence is read by plate reader.

For the next assay, the target named is FGFR2 (Homo sapiens (Human), UniProt P21802). Kind of assay: Z'-LYTE kinase inhibition assay, FGFR2. Format: biochemical. The following applies: read-out: IC50 against FGFR2. The method, then: (§1) Inhibitory activities of compounds against BTK, EGFR and EGFR mutants (EGFR L858R, EGFR T790M, EGFR L858R/T790M), FGFR1, FGFR2, JAK2, JAK3 and KDR were measured by Invitrogen using Z'-LYTE® Method as briefly described in the following.
Chain of FGFR2 (P21802 22-821): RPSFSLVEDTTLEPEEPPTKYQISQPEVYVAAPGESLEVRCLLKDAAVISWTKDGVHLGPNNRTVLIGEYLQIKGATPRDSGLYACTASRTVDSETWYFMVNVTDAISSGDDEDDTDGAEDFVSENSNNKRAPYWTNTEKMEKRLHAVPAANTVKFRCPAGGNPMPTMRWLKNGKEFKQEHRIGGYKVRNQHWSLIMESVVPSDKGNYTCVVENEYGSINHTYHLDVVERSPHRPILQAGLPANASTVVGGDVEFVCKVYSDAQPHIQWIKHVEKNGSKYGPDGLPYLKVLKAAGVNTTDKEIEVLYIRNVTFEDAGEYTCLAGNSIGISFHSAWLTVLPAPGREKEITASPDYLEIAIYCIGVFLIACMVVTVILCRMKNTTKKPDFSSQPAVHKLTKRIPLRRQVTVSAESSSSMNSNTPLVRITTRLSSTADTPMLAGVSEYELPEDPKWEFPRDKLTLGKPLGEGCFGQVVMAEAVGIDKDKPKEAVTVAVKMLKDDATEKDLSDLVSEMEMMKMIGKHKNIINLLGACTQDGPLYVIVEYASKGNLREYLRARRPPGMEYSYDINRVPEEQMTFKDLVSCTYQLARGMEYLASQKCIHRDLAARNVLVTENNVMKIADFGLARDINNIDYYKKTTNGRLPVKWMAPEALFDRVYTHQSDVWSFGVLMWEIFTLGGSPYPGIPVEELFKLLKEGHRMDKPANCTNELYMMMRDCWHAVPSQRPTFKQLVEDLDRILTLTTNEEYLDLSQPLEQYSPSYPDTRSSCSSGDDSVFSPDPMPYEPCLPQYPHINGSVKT
(§2) Test Compounds are screened in 1% DMSO (final) in the well. For 10 point titrations, 3-fold serial dilutions are conducted from the starting concentration. All ATP Solutions are diluted to a 4× working concentration in Kinase Buffer (50 mM HEPES pH 7.5, 0.01% BRIJ-35, 10 mM MgCl2, 1 mM EGTA). Peptide/Kinase Mixtures are diluted to a 2× working concentration in the appropriate Kinase Buffers as described below.
(v) Peptide/Kinase Mixtures for Measurement of FGFR2:
The 2×FGFR2/Tyr 04 mixture is prepared in 50 mM HEPES pH 7.5, 0.01% BRIJ-35, 10 mM MgCl2, 4 mM MnCl2, 1 mM EGTA, 2 mM DTT. The final 10 μL Kinase Reaction consists of 0.19-2.36 ng FGFR2 and 2 μM Tyr 04 in 50 mM HEPES pH 7.5, 0.01% BRIJ-35, 10 mM MgCl2, 2 mM MnCl2, 1 mM EGTA, 1 mM DTT. After the 1 hour Kinase Reaction incubation, 5 μL of a 1:64 dilution of Development Reagent B is added.
Reaction starts by 30-second shaking of mixture consisting of 2.5 μL 4× test compound, […] 2× kinase reaction mixture and 2.5 μL 4×ATP Solution on Bar-coded Corning, low volume NBS, black 384-well plate (Corning Cat. #3676). […] Finally fluorescence is read by plate reader. […]

The next assay addresses KDR (VEGFR2) (Homo sapiens (Human), UniProt P35968). Nature of the assay: Z'-LYTE kinase inhibition assay, KDR. Format: biochemical. Particulars: read-out: IC50 against KDR. As to the method:
as §1, §2
(v) Peptide/Kinase Mixtures for Measurement of KDR (VEGFR2):
The 2×KDR (VEGFR2)/Tyr 01 mixture is prepared in 50 mM HEPES pH 7.5, 0.01% BRIJ-35, 10 mM MgCl2, 1 mM EGTA. The final 10 μL Kinase Reaction consists of 0.5-11.7 ng KDR (VEGFR2) and 2 μM Tyr 01 in 50 mM HEPES pH 7.5, 0.01% BRIJ-35, 10 mM MgCl2, 1 mM EGTA. After the 1 hour Kinase Reaction incubation, 5 μL of a 1:256 dilution of Development Reagent B is added.
(§3) Reaction starts by 30-second shaking of mixture consisting of 2.5 μL 4× test compound, […] 2× kinase reaction mixture and 2.5 μL 4×ATP Solution on Bar-coded Corning, low volume NBS, black 384-well plate (Corning Cat. #3676). Then the mixture is incubated for 60-minute at room temperature for the kinase reaction, followed by addition of 5 μL of a 1:1024 dilution of development reagent A and 30-second plate shake. The mixture is then incubated for another 60-minute at room temperature for development reaction. Finally fluorescence is read by plate reader.
(§4) To determine IC50 of a compound against EGFR, EGFR mutant and other kinases, a series of concentrations of the compound were tested for the inhibition. […] The scale utilized in Table 4 is as follows: +++ less than 100 nM, ++ 100-500 nM and + greater than 500 nM.

A further assay addresses JAK3 (Homo sapiens (Human), UniProt P52333). Nature of the assay: Z'-LYTE kinase inhibition assay, JAK3. Type of assay: biochemical. Particulars: read-out: IC50 against JAK3. The method, then: as §1, §2
(v) Peptide/Kinase Mixtures for Measurement of JAK3:
The 2×JAK3/Tyr 06 mixture is prepared in 50 mM HEPES pH 7.5, 0.01% BRIJ-35, 10 mM MgCl2, 1 mM EGTA. The final 10 μL Kinase Reaction consists of 0.29-1.34 ng JAK3 and 2 μM Tyr 06 in 50 mM HEPES pH 7.5, 0.010/% BRIJ-35, 10 mM MgCl2, 1 mM EGTA. After the 1 hour Kinase Reaction incubation, 5 μL of a 1:64 dilution of Development Reagent A is added.
as §3, §4

The subject of the next assay is H1975 tumor xenografts. Kind of assay: Inhibition of tumor growth in H1975 xenograft model. Format: in vivo, BALB/c female nude mice. The following applies: QD x 14; for Tumor Volume Pre-treatment: baseline before treatment. The method, then:
H1975 cells were implanted in BALB/c female nude mice and grown as tumor xenografts. When tumors achieved 120-200 mm^3, mice were assigned into treatment and control groups using randomized block design based upon their tumor volumes. Each group contained 6 tumor-bearing mice. Tumors were measured twice weekly in two dimensions using a caliper, and the tumor volume was calculated from two-dimensional measurements using the equation V=0.5×a×b^2 where a and b are the long and short diameters of the tumor, respectively. Relative tumor volume (RTV) was defined as TVt/TVi, the ratio of the volume on a given day (TVt) and the volume at the start of treatment (TVi). Relative tumor growth rate (T/C) was defined as RTVT/RTVC, the ratio of relative tumor volume of treatment group (RTVT) and relative tumor volume of control group (RTVC) on a given day.

The mark [1] stands for this setting: 30 mg/kg, Intraperitoneal injection.

Chain of JAK3 (P52333 whole entry): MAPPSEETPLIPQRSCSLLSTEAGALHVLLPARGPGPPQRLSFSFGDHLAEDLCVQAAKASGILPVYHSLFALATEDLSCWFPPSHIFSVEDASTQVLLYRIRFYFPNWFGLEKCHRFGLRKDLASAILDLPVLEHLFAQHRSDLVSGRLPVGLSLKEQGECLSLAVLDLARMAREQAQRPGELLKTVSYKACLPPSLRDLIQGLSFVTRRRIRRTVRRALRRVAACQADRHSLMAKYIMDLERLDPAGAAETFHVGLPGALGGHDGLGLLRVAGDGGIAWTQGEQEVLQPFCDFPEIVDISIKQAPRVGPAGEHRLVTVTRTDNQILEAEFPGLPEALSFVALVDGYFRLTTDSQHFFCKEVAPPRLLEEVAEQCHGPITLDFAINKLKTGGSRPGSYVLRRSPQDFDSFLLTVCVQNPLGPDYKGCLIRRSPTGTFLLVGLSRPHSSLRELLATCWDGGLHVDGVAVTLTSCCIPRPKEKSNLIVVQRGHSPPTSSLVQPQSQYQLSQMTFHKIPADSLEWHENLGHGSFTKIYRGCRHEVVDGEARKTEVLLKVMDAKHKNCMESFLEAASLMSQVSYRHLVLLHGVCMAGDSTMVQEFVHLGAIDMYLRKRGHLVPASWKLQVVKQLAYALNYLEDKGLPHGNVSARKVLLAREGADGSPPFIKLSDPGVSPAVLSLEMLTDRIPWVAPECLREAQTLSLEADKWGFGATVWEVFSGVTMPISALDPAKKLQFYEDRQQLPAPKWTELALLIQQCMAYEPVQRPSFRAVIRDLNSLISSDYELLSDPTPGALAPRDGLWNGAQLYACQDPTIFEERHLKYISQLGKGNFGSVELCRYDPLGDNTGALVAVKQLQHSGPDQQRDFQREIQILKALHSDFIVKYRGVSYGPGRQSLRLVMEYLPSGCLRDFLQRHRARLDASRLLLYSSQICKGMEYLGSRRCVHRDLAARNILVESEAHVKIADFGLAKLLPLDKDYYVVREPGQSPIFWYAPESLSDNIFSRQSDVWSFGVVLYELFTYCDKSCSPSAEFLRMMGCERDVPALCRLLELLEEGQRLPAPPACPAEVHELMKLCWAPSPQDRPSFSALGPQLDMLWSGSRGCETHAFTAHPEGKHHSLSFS
Chain of KDR (VEGFR2) (P35968 20-1356): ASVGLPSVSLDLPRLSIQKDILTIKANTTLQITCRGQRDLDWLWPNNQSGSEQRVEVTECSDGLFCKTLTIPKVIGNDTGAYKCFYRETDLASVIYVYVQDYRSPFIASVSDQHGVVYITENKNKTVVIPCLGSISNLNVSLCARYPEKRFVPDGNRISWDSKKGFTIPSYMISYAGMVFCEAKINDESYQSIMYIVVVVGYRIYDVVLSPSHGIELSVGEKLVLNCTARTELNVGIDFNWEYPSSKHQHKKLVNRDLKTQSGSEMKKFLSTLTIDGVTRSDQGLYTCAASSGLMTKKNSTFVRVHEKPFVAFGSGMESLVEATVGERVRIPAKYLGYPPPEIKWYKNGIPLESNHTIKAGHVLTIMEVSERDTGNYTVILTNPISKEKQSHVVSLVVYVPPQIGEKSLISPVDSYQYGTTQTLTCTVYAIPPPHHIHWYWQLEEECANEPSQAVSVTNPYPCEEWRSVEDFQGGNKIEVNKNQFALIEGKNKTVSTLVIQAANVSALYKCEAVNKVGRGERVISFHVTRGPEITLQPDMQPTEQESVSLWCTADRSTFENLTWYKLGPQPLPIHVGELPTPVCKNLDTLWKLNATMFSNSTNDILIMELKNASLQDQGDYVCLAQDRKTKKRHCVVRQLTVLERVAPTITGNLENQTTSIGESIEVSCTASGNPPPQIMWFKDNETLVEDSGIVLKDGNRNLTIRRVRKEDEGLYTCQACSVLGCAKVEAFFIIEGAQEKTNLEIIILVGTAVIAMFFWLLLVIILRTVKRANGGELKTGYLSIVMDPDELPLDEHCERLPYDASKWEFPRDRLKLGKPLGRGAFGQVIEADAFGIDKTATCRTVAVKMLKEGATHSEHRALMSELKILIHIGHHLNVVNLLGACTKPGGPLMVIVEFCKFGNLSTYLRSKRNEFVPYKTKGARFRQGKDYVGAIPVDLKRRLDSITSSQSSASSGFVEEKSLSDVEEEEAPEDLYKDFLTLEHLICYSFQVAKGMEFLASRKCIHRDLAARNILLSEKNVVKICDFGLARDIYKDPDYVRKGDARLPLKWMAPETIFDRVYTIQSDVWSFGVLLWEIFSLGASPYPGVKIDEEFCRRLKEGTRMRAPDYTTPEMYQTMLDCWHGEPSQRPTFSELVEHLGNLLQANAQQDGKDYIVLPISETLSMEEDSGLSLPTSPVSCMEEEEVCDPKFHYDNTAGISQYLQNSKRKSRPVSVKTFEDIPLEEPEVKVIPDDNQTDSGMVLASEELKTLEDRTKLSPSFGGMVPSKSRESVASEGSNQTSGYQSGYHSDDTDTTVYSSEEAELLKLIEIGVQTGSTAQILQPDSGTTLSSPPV
Chain of EGFR (ErbB1) T790M (P00533 25-1210 T790M): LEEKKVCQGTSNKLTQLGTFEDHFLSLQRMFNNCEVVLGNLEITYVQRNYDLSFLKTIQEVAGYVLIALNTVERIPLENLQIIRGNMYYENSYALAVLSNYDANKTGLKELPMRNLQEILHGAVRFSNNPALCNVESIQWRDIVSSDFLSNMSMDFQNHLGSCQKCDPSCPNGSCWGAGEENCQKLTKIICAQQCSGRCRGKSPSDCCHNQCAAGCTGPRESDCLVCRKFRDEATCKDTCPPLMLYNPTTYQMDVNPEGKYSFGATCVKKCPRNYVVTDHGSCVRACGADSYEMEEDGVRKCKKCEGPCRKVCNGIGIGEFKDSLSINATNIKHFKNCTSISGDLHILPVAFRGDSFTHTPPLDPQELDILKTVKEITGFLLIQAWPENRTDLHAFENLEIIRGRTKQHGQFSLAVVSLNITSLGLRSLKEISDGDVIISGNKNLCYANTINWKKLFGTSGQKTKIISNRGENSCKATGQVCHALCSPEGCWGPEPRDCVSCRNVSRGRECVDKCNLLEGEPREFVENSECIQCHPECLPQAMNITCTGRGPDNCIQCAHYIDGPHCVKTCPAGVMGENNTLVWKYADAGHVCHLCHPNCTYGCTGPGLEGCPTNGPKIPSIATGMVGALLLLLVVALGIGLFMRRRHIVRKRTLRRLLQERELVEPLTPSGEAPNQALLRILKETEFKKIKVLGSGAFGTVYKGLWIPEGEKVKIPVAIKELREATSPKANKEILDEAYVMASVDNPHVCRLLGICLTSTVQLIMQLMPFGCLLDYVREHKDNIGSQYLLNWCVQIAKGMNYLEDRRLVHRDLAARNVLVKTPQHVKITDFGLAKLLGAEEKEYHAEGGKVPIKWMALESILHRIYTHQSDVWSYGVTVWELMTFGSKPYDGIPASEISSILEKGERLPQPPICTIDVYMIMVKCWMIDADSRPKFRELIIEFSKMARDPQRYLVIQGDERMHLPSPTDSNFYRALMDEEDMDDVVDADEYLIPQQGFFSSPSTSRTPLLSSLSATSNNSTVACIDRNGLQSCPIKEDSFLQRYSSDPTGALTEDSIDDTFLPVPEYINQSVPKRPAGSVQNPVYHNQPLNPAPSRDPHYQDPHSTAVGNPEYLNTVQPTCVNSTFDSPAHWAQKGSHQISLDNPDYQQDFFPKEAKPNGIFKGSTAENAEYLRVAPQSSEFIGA

As for `C=CC(=O)Nc1cccc(-c2cccc3cnc(Nc4ccc(N5CCOCC5)cc4)nc23)c1` [Example C001, N-(3-(2-((4-morpholinophenyl)amino)quinazolin-8-yl)phenyl)acrylamide], the inhibition – broadly, how much of the control response was suppressed – at 1 µM at EGFR (ErbB1) T790M is greater than 50%.
Still for that read-out and setting: the result for `C=CC(=O)Nc1cccc(-c2cccc3cnc(Nc4ccc(N5CCOCC5)cc4OC)nc23)c1` [Example C002, N-(3-(2-((2-methoxy-4-morpholinophenyl)amino)quinazolin-8-yl)phenyl)acrylamide] reads greater than 50%; that for `C=CC(=O)Nc1cccc(-c2cccc3cnc(Nc4ccc(N5CCN(C)CC5)cc4OC)nc23)c1` [Example C003, N-(3-(2-((2-methoxy-4-(4-methylpiperazin-1-yl)phenyl)amino)quinazolin-8-yl)phenyl)acrylamide], greater than 50%.
Turning to `c1ccc(-c2cccc3cnc(Nc4ccc(N5CCOCC5)cc4)nc23)cc1` [Example C004, N-(4-morpholinophenyl)-8-phenylquinazolin-2-amine], the inhibition at 1 µM at EGFR (ErbB1) T790M was less than 50%.
Same read-out and setting: under `C=CC(=O)Nc1cccc(-c2nccc3c(N)nc(Nc4ccc(N5CCOCC5)cc4)nc23)c1` [Example C005, N-(3-(4-amino-2-((4-morpholinophenyl)amino)pyrido[3,4-d]pyrimidin-8-yl)phenyl)acrylamide] stands less than 50%; under `Fc1ccc(Cl)cc1-c1cccc2cnc(Nc3ccc(N4CCOCC4)cc3)nc12` [Example C007, 8-(5-chloro-2-fluorophenyl)-N-(4-morpholinophenyl)quinazolin-2-amine], less than 50%; under `Clc1cccc(-c2cccc3cnc(Nc4ccc(N5CCOCC5)cc4)nc23)c1` [Example C008, 8-(3-chlorophenyl)-N-(4-morpholinophenyl)quinazolin-2-amine], less than 50%.
Regarding `Fc1cccc(-c2cccc3cnc(Nc4ccc(N5CCOCC5)cc4)nc23)c1` [Example C009, 8-(3-fluorophenyl)-N-(4-morpholinophenyl)quinazolin-2-amine], at EGFR (ErbB1) T790M, the inhibition at 1 µM was less than 50%.
Still for that read-out and setting: the result for `Fc1ccccc1-c1cccc2cnc(Nc3ccc(N4CCOCC4)cc3)nc12` [Example C010, 8-(2-fluorophenyl)-N-(4-morpholinophenyl)quinazolin-2-amine] reads less than 50%; that for `Clc1ccccc1-c1cccc2cnc(Nc3ccc(N4CCOCC4)cc3)nc12` [Example C011, 8-(2-chlorophenyl)-N-(4-morpholinophenyl)quinazolin-2-amine], less than 50%; that for `C=CC(=O)Nc1cccc(-c2nccc3cnc(Nc4ccc(N5CCOCC5)cc4)nc23)c1` [Example C012, N-(3-(2-((4-morpholinophenyl)amino)pyrido[3,4-d]pyrimidin-8-yl)phenyl)acrylamide], greater than 50%.
Turning to `C=CC(=O)Nc1cccc(-c2cccc3cnc(Nc4ccc(N5CCN(C)CC5)cc4)nc23)c1` [Example C021, N-(3-(2-((4-(4-methylpiperazin-1-yl)phenyl)amino)quinazolin-8-yl)phenyl)acrylamide], the IC50 – broadly, the point on the concentration scale where inhibition reaches its midpoint – on FGFR2 was less than 0.1 µM. For the same compound, the IC50 at KDR (VEGFR2) was less than 0.1 µM. Also, the IC50 at JAK3 is less than 0.1 µM. Besides, in the assay with H1975 tumor xenografts (60 mg/kg, Oral), the “T/C (relative tumor growth rate)” value is 30.5%, the “Tumor Volume Post-treatment” value is recorded as 633.5 mm^3 and the “Tumor Volume Pre-treatment” value was found to be 152.5 mm^3.
Take `C=CC(=O)Nc1cccc(-c2cccc3cnc(Nc4ccc(N5CCN(C)CC5)nc4)nc23)c1` [Example C041, N-(3-(2-((6-(4-methylpiperazin-1-yl)pyridin-3-yl)amino)quinazolin-8-yl)phenyl)acrylamide]: at KDR (VEGFR2), the 50% inhibitory concentration (IC50) was less than 0.1 µM. For the same compound, at JAK3, the IC50 is less than 0.1 µM. Moreover, in the assay on H1975 tumor xenografts (setting [1]), the “T/C (relative tumor growth rate)” value is given as 48.7%, the “Tumor Volume Post-treatment” value turned out to be 1021.2 mm^3 and the “Tumor Volume Pre-treatment” value is listed as 151.7 mm^3.
With `C=CC(=O)Nc1cccc(-c2cccc3cnc(Nc4ccc(N5CCN(C)CC5)cc4F)nc23)c1` [Example C044, N-(3-(2-((2-fluoro-4-(4-methylpiperazin-1-yl)phenyl)amino)quinazolin-8-yl)phenyl)acrylamide], the half-maximal inhibitory concentration (IC50) on JAK3 is less than 0.1 µM.
With `C=CC(=O)Nc1cccc(-c2cccc3cnc(Nc4ccc(N5CCN(CCO)CC5)cc4)nc23)c1` [Example C059, N-(3-(2-((4-(4-(2-hydroxyethyl)piperazin-1-yl)phenyl)amino)quinazolin-8-yl)phenyl)acrylamide], the half-maximal inhibitory concentration (IC50) on KDR (VEGFR2) was less than 0.1 µM. Also, the IC50 at JAK3 was less than 0.1 µM. Besides, in the assay with H1975 tumor xenografts (60 mg/kg, Oral), the “T/C (relative tumor growth rate)” value was found to be 35.3%, the “Tumor Volume Post-treatment” value came to 746.4 mm^3 and the “Tumor Volume Pre-treatment” value was 151.6 mm^3.
